Here are results for 2 compounds from paper PMC11847541, “Liver fatty acid binding protein FABP1 transfers substrates to cytochrome P450 4A11 for catalysis” (The Journal of Biological Chemistry, 2025).

The term Kd denotes the constant that tells how readily two partners part at equilibrium. For orientation: kon means the second-order rate constant of association.

Read-outs that look alike come from different tables or passages of the source.

Test [1] has as its target T1, FABP1 (Homo sapiens, UniProt P07148).
T1 construct: GST (N, cleaved yes); made in house; host or cells: Escherichia coli DH5α
T1 sequence (P07148 with tags, fused parts or gaps): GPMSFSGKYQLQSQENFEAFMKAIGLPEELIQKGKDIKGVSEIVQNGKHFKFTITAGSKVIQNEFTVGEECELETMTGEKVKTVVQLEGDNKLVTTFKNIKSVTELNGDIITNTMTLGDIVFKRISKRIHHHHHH
The following applies: human FABP1, fluorescence displacement assay; read-out: Kd; cited from earlier work.

The target in test [2] is T1, FABP1. The arrangement: method as in PMID 10852718. The conditions noted are these: ADIFAB system; cited from earlier work.
The target in another test is T2, P450 4A11 (Homo sapiens, UniProt Q02928).
T2 sequence (Q02928 5-519): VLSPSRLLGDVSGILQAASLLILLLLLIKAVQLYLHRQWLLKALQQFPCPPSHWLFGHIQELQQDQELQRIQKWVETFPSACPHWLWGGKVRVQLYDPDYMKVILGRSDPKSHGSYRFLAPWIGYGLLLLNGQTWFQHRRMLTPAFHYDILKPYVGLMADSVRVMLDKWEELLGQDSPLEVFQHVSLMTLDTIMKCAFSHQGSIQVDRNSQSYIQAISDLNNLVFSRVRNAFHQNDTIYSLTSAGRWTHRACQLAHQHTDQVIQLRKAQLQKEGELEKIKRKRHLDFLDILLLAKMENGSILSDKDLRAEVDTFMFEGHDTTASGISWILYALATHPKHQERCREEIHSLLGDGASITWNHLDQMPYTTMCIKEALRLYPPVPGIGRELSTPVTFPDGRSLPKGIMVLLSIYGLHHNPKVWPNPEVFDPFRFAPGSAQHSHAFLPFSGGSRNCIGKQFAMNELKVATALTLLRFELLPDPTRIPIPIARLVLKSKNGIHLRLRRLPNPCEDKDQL
In words: Stopped-flow kinetics of palmitate binding to P450 4A11 (type I shift). The conditions noted are these: P450 4A11 1 μM, palmitate 5 μM; read-out: kon to P450 4A11 (k1). The arrangement: made in house; host or cells: E. coli. As to the method:
To assess the rates of lipid binding to P450 4A11 (k1), type I spectral shift (from ∼420 nm to ∼390 nm, described previously) was monitored after rapid mixing of P450 and palmitate (Fig. 9A, magenta [substrate free], blue [substrate bound]). When P450 4A11 (1 μM) was mixed with palmitate (5 μM), slow binding kinetics were observed (Fig. 9B). Single exponential fitting of the data yielded a binding rate of 0.21 ± 0.03 s^−1 (kon = k1 = 4.2 ± 0.6 × 10^4 M^−1 s^−1).
Figure 9 Kinetics of fatty acid binding to P450 4A11.A, spectra were collected with 1 μM P450 4A11 (purple line) to which 5 μM palmitate (blue line) and 50 μM ketoconazole (red line) were successively added to induce characteristic P450 “type I” and “type II” spectral shifts, respectively. B, P450 4A11 (1 μM) was rapidly mixed with palmitate (5 μM), and the P450 blue shift (A) was monitored and fit to an exponential equation (blue line) yielding a kon value of 0.21 ± 0.03 s^−1. C, 16-OH palmitate (4 μM) and D, palmitate (10 μM) were preincubated with P450 4A11 (2 μM) and rapidly mixed with ketoconazole (100 μM), and the P450 red shift (part A) was monitored and fit to biexponential equations (red lines). […]
On-rates (kon) to P450 4A11 with lipids were determined by monitoring the hypsochromic (“blue,” “type I”) shift in the heme Soret (A418 [hexacoordinated] → A390 [pentacoordinated]) as substrate binds. […]

On the set-up of test [3]: method as in PMID 2335507. The conditions noted are these: cited from earlier work.

`CCCCCCCCCCCCCCCC(=O)O` [Palmitate (C16), palmitate]: the results for the Kd at FABP1 [1] and on FABP1 [2] were 0.038 ± 0.001 µM and 0.06 µM, respectively. For the same compound, the kon on P450 4A11 turned out to be 42000 ± 6e+07 M⁻¹ s⁻¹.

In the case of “FABP1: delipidated recombinant liver fatty acid binding protein with C-terminal hexahistidine tag”, the “rate of FABP1 lipid transfer to phospholipid membranes” value in test [3] was about 0.005 s⁻¹.
